Reference: the NIST ThermoML archive (doi:10.1016/j.jct.2013.08.010)

Experiments:
[1] = mn = molality of the nth substance listed, in mol/kg; details: 101 kPa, Liquid; for speed of sound: Sing-around technique in a fixed-path interferometer; for mass density: Vibrating tube method
[2] = 101 kPa, Liquid, Sing-around technique in a fixed-path interferometer

O=C([O-])CC(O)(CC(=O)[O-])C(=O)[O-].[Na+].[Na+].[Na+] [trisodium citrate] + O
[1]
Details | mass density, 288.15 K [kg/m3] | mass density, 298.15 K [kg/m3] | mass density, 308.15 K [kg/m3] | mass density, 318.15 K [kg/m3] | speed of sound, 288.15 K [m/s] | speed of sound, 298.15 K [m/s] | speed of sound, 308.15 K [m/s] | speed of sound, 318.15 K [m/s]
m1 = 0.2 | 1034.67 | 1031.98 | 1028.5 | 1024.36 | 1508 | 1536 | 1556.9 | 1571.8
m1 = 0.4 | 1071.21 | 1067.93 | 1064.13 | 1059.23 | 1552.2 | 1577.5 | 1595.8 | 1608.3
m1 = 0.6 | 1104.43 | 1100.68 | 1096.96 | 1092.26 | 1591.5 | 1614 | 1630.3 | 1641.2
m1 = 0.8 | 1137.97 | 1133.93 | 1129.43 | 1124.5 | 1634 | 1653.8 | 1667.3 | 1676.2

O [water]
[2]
Details | speed of sound [m/s]
288.15 K | 1463.1
298.15 K | 1495.8
308.15 K | 1519.1
